Test systems include A549 NSCLC; HOP-62 NSCLC; K-562 leukemia; MDA-MB-231 breast; OVCAR-4 ovarian; OVCAR-8 ovarian; SN12C renal; BT-549 breast.
Holding throughout (assay): DTP human tumour cell line panel, 48 h

Structures are written as SMILES. Where “and” joins values, the source holds several entries; their conditions need not be identical. Equal entries are not always repeated.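 Values below derive from 48-hour exposures of cells grown in 96-well plates, with endpoints linearly interpolated between the two concentrations bracketing the appropriate inhibition level. At the GI50, growth is halved. TGI marks complete inhibition of growth.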 Some results are limits rather than exact numbers.

In general, TGI refers to the concentration at which net growth stops. A higher TGI goes with lower sensitivity of the cells. For the compound `N#CCC12CC=CCC1=C(O)C(=O)c1ccc(O)cc12` (stereo not given), the concentration for total growth inhibition (TGI) with A549 NSCLC, in the assay on HOP-62 NSCLC, in the assay with K-562 leukemia, in the assay on MDA-MB-231 breast, in the assay on OVCAR-4 ovarian and in the assay on OVCAR-8 ovarian was over 100 µM each time. In the assay with SN12C renal, this compound had a TGI of over 100 µM.
As a reminder, the GI50 is the concentration that inhibits growth by half. With `Nc1nc(Cl)c(N=Nc2ccc(Cl)cc2)c(NCC2(CO)CC(OCc3ccccc3)C2)n1` (stereo not given), the GI50 with A549 NSCLC is 14.7 µM and 62.7 µM and 13.8 µM; in the assay with BT-549 breast, 4.98 µM and 45.7 µM and 8.82 µM; with K-562 leukemia, 2.76 µM; in the assay with OVCAR-4 ovarian, 2.25 µM and 15.9 µM and 3.65 µM; in the assay on OVCAR-8 ovarian, 3.69 µM and 16.1 µM and 4.39 µM. Also, the total growth inhibition concentration (TGI) is 51.2 µM and > 100 µM and 32.1 µM with A549 NSCLC; 46 µM and > 100 µM and 23.9 µM in the assay with BT-549 breast; 49.4 µM and > 100 µM and 22.5 µM in the assay with HOP-62 NSCLC; 10.3 µM and > 100 µM with K-562 leukemia; 16.3 µM and > 100 µM and 23.9 µM in the assay on OVCAR-8 ovarian; 16.9 µM and > 100 µM and 22 µM in the assay on SN12C renal.
In the case of `COC(=O)c1cc2c3ccccc3n3c(=O)c4cc5cc(OC)c(N(S(=O)(=O)c6ccc(C)cc6)S(=O)(=O)c6ccc(C)cc6)cc5nc4c(n1)c23`, the GI50 is over 100 µM in the assay on A549 NSCLC; 11 µM in the assay with BT-549 breast; 47.2 µM with K-562 leukemia; 9.62 µM in the assay with MDA-MB-231 breast; over 100 µM in the assay on OVCAR-4 ovarian; 67.9 µM in the assay on OVCAR-8 ovarian. Also, the GI50 with SN12C renal was 95.7 µM. In addition, the TGI in the assay on A549 NSCLC is over 100 µM; in the assay with BT-549 breast, 27.8 µM; in the assay with K-562 leukemia it was over 100 µM; in the assay with MDA-MB-231 breast, 32.3 µM; in the assay with OVCAR-4 ovarian it was over 100 µM; in the assay with OVCAR-8 ovarian, over 100 µM. Moreover, the TGI in the assay with SN12C renal was over 100 µM.
Consider `O=C1Nc2ccccc2/C1=C/c1cn(C(=O)c2c(Cl)cccc2Cl)c2ccccc12`, for which the GI50 in the assay on A549 NSCLC is 3.23 µM; in the assay with BT-549 breast, 2.4 µM; in the assay on HOP-62 NSCLC, 12.8 µM; in the assay with K-562 leukemia, 3.14 µM; in the assay on MDA-MB-231 breast, 3.09 µM; in the assay with OVCAR-8 ovarian it was 4.12 µM. Further, the GI50 with SN12C renal was 4 µM. For the same compound, the TGI in the assay on A549 NSCLC is 17.6 µM; with BT-549 breast, 8.95 µM; in the assay with HOP-62 NSCLC, 40.4 µM; in the assay on K-562 leukemia it was over 100 µM; with MDA-MB-231 breast, 16.8 µM; with OVCAR-8 ovarian, 37.4 µM. Also, in the assay with SN12C renal, the total growth inhibition concentration (TGI) stood at 19.3 µM.
With `COc1cc(C2CC(c3ccc(Nc4ccnc5cc(Cl)ccc45)cc3)=NN2C=O)cc(OC)c1OC` (stereo not given), the GI50 in the assay on A549 NSCLC was 6.9 µM; in the assay with BT-549 breast it was 1.92 µM; with HOP-62 NSCLC, 4.13 µM; with MDA-MB-231 breast it was 4.39 µM; with OVCAR-4 ovarian, 3.19 µM; in the assay on OVCAR-8 ovarian, 9.98 µM. The GI50 in the assay on SN12C renal was 4.37 µM. The TGI in the assay with A549 NSCLC is over 100 µM; in the assay on BT-549 breast it was 3.97 µM; in the assay with HOP-62 NSCLC, 20.8 µM; in the assay on MDA-MB-231 breast, 54 µM; with OVCAR-4 ovarian it was 13.3 µM; in the assay on OVCAR-8 ovarian, over 100 µM. Besides, the TGI in the assay with SN12C renal is 42.4 µM.
For `CC(=O)c1c(O)ccc2c(C)c(C(=O)O)oc12`, the GI50 in the assay on A549 NSCLC, in the assay on BT-549 breast, in the assay with HOP-62 NSCLC, in the assay with K-562 leukemia, in the assay on OVCAR-4 ovarian and with OVCAR-8 ovarian was over 100 µM throughout. In addition, the TGI with A549 NSCLC, with BT-549 breast, in the assay with HOP-62 NSCLC, in the assay with K-562 leukemia, in the assay with OVCAR-4 ovarian and in the assay with OVCAR-8 ovarian was over 100 µM throughout.
As for `CC1CC(C)/C(=N/NC(N)=O)C(C(O)CC2CCC(=O)NC2=O)C1` (stereo not given), the GI50 in the assay on A549 NSCLC is 2.36 µM; in the assay on BT-549 breast, 7.08 µM; in the assay on HOP-62 NSCLC, 2.99 µM; in the assay on MDA-MB-231 breast it was 8.4 µM; with OVCAR-4 ovarian it was 5.64 µM; in the assay on OVCAR-8 ovarian, 2.71 µM. Further, the GI50 with SN12C renal is 1.99 µM. Also, the TGI in the assay with A549 NSCLC is 56.7 µM; with BT-549 breast it was over 100 µM; with HOP-62 NSCLC, over 100 µM; with MDA-MB-231 breast it was 88.9 µM; with OVCAR-4 ovarian, over 100 µM; with OVCAR-8 ovarian, 57.5 µM. In addition, the concentration for total growth inhibition (TGI) in the assay with SN12C renal was over 100 µM.
On to `Cc1ccc(/C=C/C(=O)c2ccc(N)cc2)c(C)c1`, for which the GI50 in the assay with A549 NSCLC was 17.6 µM; with BT-549 breast it was 1.68 µM; in the assay with HOP-62 NSCLC, 17 µM; in the assay on K-562 leukemia, 2.03 µM; in the assay with MDA-MB-231 breast it was 2.68 µM; in the assay with OVCAR-4 ovarian, 2.09 µM. The GI50 in the assay on SN12C renal is 1.95 µM. Further, the TGI in the assay on A549 NSCLC stood at 37.5 µM; in the assay on BT-549 breast it was 3.4 µM; with HOP-62 NSCLC, 38 µM; in the assay on K-562 leukemia, 4.84 µM; with MDA-MB-231 breast, 6.75 µM; in the assay with OVCAR-4 ovarian, 5 µM. Besides, the concentration for total growth inhibition (TGI) in the assay on SN12C renal was 4.2 µM.
Take `O=C1c2cccc3cccc(c23)C(=O)N1CCCCN1CCN(CCCCOc2ccc(-c3nc4ccc(N5CCOCC5)cc4[nH]3)cc2)CC1`: the GI50 is over 100 µM with A549 NSCLC; 35.4 µM in the assay with BT-549 breast; over 100 µM in the assay with HOP-62 NSCLC; 4.35 µM in the assay on K-562 leukemia; 9.16 µM with MDA-MB-231 breast; over 100 µM with OVCAR-4 ovarian. Also, the GI50 in the assay on OVCAR-8 ovarian is 8.8 µM. The concentration for total growth inhibition (TGI) in the assay on A549 NSCLC, in the assay on BT-549 breast, with HOP-62 NSCLC, in the assay on K-562 leukemia, in the assay on MDA-MB-231 breast and in the assay with OVCAR-4 ovarian was over 100 µM each time. The TGI with OVCAR-8 ovarian is over 100 µM.
Consider `O=C(Nc1ccc(Cl)cc1)c1ccc([N+](=O)[O-])o1`, for which the GI50 with A549 NSCLC is 2.64 µM; with BT-549 breast, 1.9 µM; in the assay on HOP-62 NSCLC it was 1.49 µM; in the assay with MDA-MB-231 breast it was 6.79 µM; in the assay with OVCAR-4 ovarian it was 2.11 µM; in the assay on OVCAR-8 ovarian, 2.99 µM. Besides, in the assay on SN12C renal, the GI50 is 1.68 µM. The TGI turned out to be 9.21 µM in the assay on A549 NSCLC; 4.06 µM with BT-549 breast; 3.27 µM in the assay with HOP-62 NSCLC; 47.2 µM in the assay on MDA-MB-231 breast; 8.31 µM in the assay with OVCAR-4 ovarian; 12.8 µM with OVCAR-8 ovarian. Besides, in the assay with SN12C renal, the TGI turned out to be 4.12 µM.
As to `COC(=O)c1oc2c(O)c(OC)c(Br)cc2c1C`, the GI50 in the assay on A549 NSCLC was 25 µM; in the assay on BT-549 breast, 17.7 µM; with HOP-62 NSCLC it was 23.3 µM; with K-562 leukemia, 34.4 µM; in the assay on MDA-MB-231 breast, 16.5 µM; with OVCAR-8 ovarian, 28.7 µM. Moreover, the TGI is 74.1 µM in the assay with A549 NSCLC; 42.6 µM in the assay on BT-549 breast; 51.4 µM in the assay with HOP-62 NSCLC; over 100 µM in the assay on K-562 leukemia; 37 µM in the assay with MDA-MB-231 breast; 91.7 µM in the assay with OVCAR-8 ovarian.

Source of the values: PubChem BioAssay (NCI).
